From US4748155A, “Pharmacologically active tripeptides and process for their synthesis” (Eniricerche S.p.A., priority 1985, dated 1988)

Test system: acetic acid-induced writhings in mice
Conditions: mouse, in vivo, ip
Protocol: The analgesic activity has been tested by means of the writhing test. As the painful agent, an aqueous solution of acetic acid at 3% was used, injected by intraperitoneal way (0.1 ml/10 g), and the number was recorded of animal' writhings during the observation time of 20 minutes.
Twenty female mice of Albino Swiss strain, weighing 25-28 g, were treated with the compound under test, dissolved in physiologic solution:dimethylsulphoxide (1:1), at the dosage of 0.1 ml/kg/i.p. Other 20 mice, of same strain, sex and weight, were treated with the solvent only. After 40 minutes, the acetic acid was administered to both groups, and the increase of writhings was recorded.

CC(C)C[C@@H](NC(=O)C(Cc1c[nH]c2ccccc12)C(=O)O)NC(=O)[C@@H]1CCC(=O)N1 (stereo partly drawn) [GLP-g-Leu-m-TRP-OH, N-(pyroglutamyl)-N'-[(R,S)-alpha-carboxy-beta-3-indolyl-propanoyl]-(S)-1,1-diamino-isopentane]
inhibition of the number of contorsions (writhings): 25%
